According to ChEMBL document CHEMBL3085736, “Identification of sulfonic acids as efficient ecto-5'-nucleotidase inhibitors” (Eur J Med Chem, 2013):

What was measured:
NCI-H157 [1] = test: Cytotoxicity against human NCI-H157 cells at 100 uM after 24 hrs by sulforhodamine B assay; assay type: functional
HCEC = test: Cytotoxicity against HCEC after 24 hrs by sulforhodamine B assay; assay type: cell-based; conditions: human
5'-nucleotidase [2] = target: T1, 5'-nucleotidase (Homo sapiens, UniProt P21589); test: Inhibition of human recombinant ecto-5'-nucleotidase expressed in african green monkey COS7 cells using adenosine monophosphate as substrate preincubated for 10 mins before substrate addition measured after 10 mins by capillary electrophoresis; assay type: cell-based, COS-7
5'-nucleotidase [3] = target: T2, 5'-nucleotidase (Rattus norvegicus, UniProt P21588); test: Inhibition of rat recombinant ecto-5'-nucleotidase expressed in african green monkey COS7 cells using adenosine monophosphate as substrate preincubated for 10 mins before substrate addition measured after 10 mins by capillary electrophoresis; assay type: cell-based, COS-7
T2 sequence (P21588 whole entry): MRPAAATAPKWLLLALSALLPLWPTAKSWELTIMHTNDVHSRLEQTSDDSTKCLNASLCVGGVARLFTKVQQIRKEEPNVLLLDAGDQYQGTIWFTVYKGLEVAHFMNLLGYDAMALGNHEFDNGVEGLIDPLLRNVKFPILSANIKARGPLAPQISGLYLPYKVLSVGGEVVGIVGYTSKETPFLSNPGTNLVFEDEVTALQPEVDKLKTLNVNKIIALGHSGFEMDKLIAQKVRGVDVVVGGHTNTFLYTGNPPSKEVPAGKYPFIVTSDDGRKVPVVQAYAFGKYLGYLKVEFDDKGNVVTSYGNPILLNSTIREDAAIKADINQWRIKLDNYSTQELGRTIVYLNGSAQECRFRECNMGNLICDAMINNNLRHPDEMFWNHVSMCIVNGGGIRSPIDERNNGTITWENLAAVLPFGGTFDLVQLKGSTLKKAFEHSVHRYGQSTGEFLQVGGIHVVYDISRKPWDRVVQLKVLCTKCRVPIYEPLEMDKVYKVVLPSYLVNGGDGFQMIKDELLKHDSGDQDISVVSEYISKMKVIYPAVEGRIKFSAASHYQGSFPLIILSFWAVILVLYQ

[4] = target: T3, 5'-nucleotidase (Rattus norvegicus) (UniProt P21588); test: Inhibition of rat recombinant ecto-5'-nucleotidase expressed in african green monkey COS7 cells using adenosine monophosphate as substrate at 1 mM preincubated for 10 mins before substrate addition measured after 10 mins by capillary electrophoresis; assay type: cell-based; conditions: COS-7
T3 sequence (whole entry): T2 sequence (P21588 whole entry)

5'-nucleotidase [5] = target: T1, 5'-nucleotidase; test: Inhibition of human recombinant ecto-5'-nucleotidase expressed in african green monkey COS7 cells using adenosine monophosphate as substrate at 1 mM preincubated for 10 mins before substrate addition measured after 10 mins by capillary electrophoresis; assay type: cell-based; conditions: COS-7
NCI-H157 [6] = test: Cytotoxicity against human NCI-H157 cells at 10 uM after 24 hrs by sulforhodamine B assay; assay type: functional

T1 sequence (P21589 whole entry): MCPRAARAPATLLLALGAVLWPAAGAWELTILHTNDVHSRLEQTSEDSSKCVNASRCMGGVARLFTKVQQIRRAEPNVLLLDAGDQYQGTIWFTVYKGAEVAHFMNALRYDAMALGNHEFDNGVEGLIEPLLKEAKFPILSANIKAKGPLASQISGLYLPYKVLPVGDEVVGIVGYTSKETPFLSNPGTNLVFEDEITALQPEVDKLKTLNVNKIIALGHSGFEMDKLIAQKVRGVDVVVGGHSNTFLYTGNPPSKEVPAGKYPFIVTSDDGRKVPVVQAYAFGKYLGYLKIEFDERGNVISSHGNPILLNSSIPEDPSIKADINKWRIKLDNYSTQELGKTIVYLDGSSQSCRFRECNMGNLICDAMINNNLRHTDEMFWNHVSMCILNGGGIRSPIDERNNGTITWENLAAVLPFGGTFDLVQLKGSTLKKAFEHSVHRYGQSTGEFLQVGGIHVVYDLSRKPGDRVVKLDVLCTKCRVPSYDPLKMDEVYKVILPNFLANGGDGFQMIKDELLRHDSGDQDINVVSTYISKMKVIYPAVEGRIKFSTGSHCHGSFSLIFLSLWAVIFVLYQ

Structure (SMILES)	Activity (NCI-H157 [1])	Activity (HCEC)	IC50 (5'-nucleotidase [2])	IC50 (5'-nucleotidase [3])	inhibition [4]	inhibition (5'-nucleotidase [5])	Activity (NCI-H157 [6])
NS(=O)(=O)O [SULFAMATE]	<40%	Non-toxic	42.1 µM	77.3 µM	–	–	–
Nc1ccc(S(=O)(=O)O)cc1	<40%	Non-toxic	8.2 µM	70.1 µM	–	–	–
Nc1c(S(=O)(=O)O)cc(Br)c2c1C(=O)c1ccccc1C2=O	<40%	Non-toxic	–	–	27%	4%	–
Nc1cc(S(=O)(=O)O)cc2cc(S(=O)(=O)O)cc(O)c12	<40%	Non-toxic	21.8 µM	76.6 µM	–	–	–
Nc1ccc(S(=O)(=O)O)c2ccccc12	<40%	Non-toxic	–	–	28%	43%	–
NC(=O)Nc1ccc2cc(S(=O)(=O)O)cc(O)c2c1	<40%	Non-toxic	30.5 µM	–	40%	–	–
Cc1ccc2nc(-c3ccc(N)cc3)sc2c1S(=O)(=O)O	<40%	Non-toxic	13.5 µM	18.6 µM	–	–	–
Nc1ccc2cc(S(=O)(=O)O)cc(O)c2c1	<40%	Non-toxic	1.32 µM	10.4 µM	–	–	–
Nc1ccc(Nc2ccc([N+](=O)[O-])cc2)c(S(=O)(=O)O)c1	42%	Non-toxic	47.6 µM	72.9 µM	–	–	–
Nc1c(O)cc(S(=O)(=O)O)c2cc([N+](=O)[O-])ccc12	<40%	Non-toxic	41 µM	31.6 µM	–	–	–
Nc1cc(S(=O)(=O)[O-])cc2ccccc12.[Na+]	48%	Non-toxic	–	–	20%	35%	–
CC[C@]1(O)C[C@H]2CN(CCc3c([nH]c4ccccc34)[C@@](C(=O)OC)(c3cc4c(cc3OC)N(C=O)[C@H]3[C@@](O)(C(=O)OC)[C@H](OC(C)=O)[C@]5(CC)C=CCN6CC[C@]43[C@@H]65)C2)C1 [VINCRISTINE]	47%	–	–	–	–	–	–
CC1=NN(c2ccc(S(=O)(=O)O)cc2)C(=O)C1	72%	Non-toxic	6.1 µM	44.3 µM	–	–	40%
CC1=NN(c2ccccc2)C(=O)C1 [EDARAVONE]	70%	Non-toxic	–	–	29%	15%	40%
